Usually solubility stands for the concentration that dissolves in the medium under given conditions.

Data on six molecules can be found in patent US20160060288A1, “Ester derivatives of 7-alpha-[9-(4,4,5,5,5-pentafluoropentylsulfinyl)nonyl)-estra-1,3,5(10)-triene-3,17beta-diol having anticancer activity and preparation method thereof” (XI'ANLIBANG PHARMACEUTICAL TECHNOLOGY CO., LTD., priority 2013, published 2016).

Series [1] relates to human breast cancer MCF-7. Briefly: Growth inhibition of human breast cancer MCF-7 xenografted in nude mice. It is filed as in vivo, BALB/c female nude mice. Conditions: oiling agent, 100 mg/kg s.c. once, 28 days after administration; for Tumor weight: X ± SD; for Tumor inhibition rate: from tumor weight vs control. The text has this: Test drugs: fulvestrant, Compounds II and X are dispersed in oil and sterilized to be prepared as oiling agents respectively.
For orientation: A xenograft is tissue or cells of one species grown in another, often human tumour cells in immunodeficient mice.

The next series in a line: physchem. As to conditions: thermodynamic from solid.
For series [2] the following is noted: cited from earlier work.
Series [3] is described as follows: Body weight of MCF-7 xenografted nude mice. As to conditions: oiling agent, 100 mg/kg s.c. once, 28 days after administration, X ± SD.
Procedure: Experimental animals and grouping thereof, source, germline and strain: BALB/c female nude mice, provided by Laboratory Animal Research Center of Academy of Military Medical Sciences of China (Laboratory animal production license: SCXK (Military) 2007-004), day-old: 35-40 days; body weight: 18-24 g.
Establishment of model and tumor measuring method: human breast cancer MCF-7 cell lines in logarithmic growth phase were prepared into a cell suspension of 5×10^8/mL under sterile condition, with 0.1 mL of which being inoculated to nude mice at their right armpits subcutaneously. Xenografted tumors of nude mice were measured for diameter with vernier caliper, and animals were randomly grouped when the tumors grew to 100-300 mm^3. The administration volume to each of the mice was 0.2 mL/20 g by subcutaneous injection at head and neck region. 28 days after administration, the mice were sacrificed and the tumors were stripped by surgery and weighed.
Series [4] can be described thus: Solubility experiments of fulvestrant and ester derivatives in different oils and solvents. As to conditions: thermodynamic from solid.
Source text: (§1) Fulvestrant and ester derivatives of fulvestrant were accurately weighed to an appropriate amount respectively. Their solubilities (in mg/mL) in different oils and solvents were compared according to General Notice in Section 2 of Chinese Pharmacopoeia (2010).
The mark [5] stands for this setting: oil or lipid, Solubility in soybean oil.
Where [6] appears, read: organic solvent or mixture, Solubility in propylene glycol.

Values after ≈ are worked out from the molar mass of the structure shown.

Source text for physchem: as §1

`CCCCCCCCCCCCCCCC(=O)OC1CCC2C3C(CCCCCCCCC[S+]([O-])CCCC(F)(F)C(F)(F)F)Cc4cc(O)ccc4C3CCC12C` (centres unmarked) [Compound II]: the Tumor weight in series [1] is on record as 0.426 ± 0.306 g. Moreover, the Tumor inhibition rate in series [1] amounted to 64.90%. Moreover, the solubility in the series “physchem” (oil or lipid, Solubility in castor oil) was > 100000 µg/mL; in the series “physchem” (oil or lipid, Solubility in medium-chain oil), > 10000 µg/mL; in the series “physchem” (setting [5]) it was > 100000 µg/mL; in the series “physchem” (organic solvent or mixture, Solubility in PEG 400) it was 2900 µg/mL (≈ 3.43 mM); in “physchem” (setting [6]) it was 10200 µg/mL (≈ 12.1 mM).
For `CC(CCC(C(=O)OC1CCC2C3C(CCCCCCCCC[S+]([O-])CCCC(F)(F)C(F)(F)F)Cc4cc(O)ccc4C3CCC12C)C(C)CC(C)(C)C)CC(C)(C)C` (centres unmarked) [Compound IV], the solubility turned out to be 28000 µg/mL (≈ 32.1 mM) in the series “physchem” (setting [5]) and 7100 µg/mL (≈ 8.13 mM) in “physchem” (setting [6]).
The corresponding values for `CCCCCCCCCCC(=O)OC1CCC2C3C(CCCCCCCCC[S+]([O-])CCCC(F)(F)C(F)(F)F)Cc4cc(O)ccc4C3CCC12C` (centres unmarked) [Compound I] are 255000 µg/mL (≈ 329 mM) and 2900 µg/mL (≈ 3.74 mM).
In the case of `CCCCCCCC/C=C/C(=O)OC1CCC2C3C(CCCCCCCCC[S+]([O-])CCCC(F)(F)C(F)(F)F)Cc4cc(O)ccc4C3CCC12C` (centres unmarked) [Compound V], the solubility in the series “physchem” (setting [5]) was found to be 122000 µg/mL (≈ 158 mM); in “physchem” (setting [6]) it was 12200 µg/mL (≈ 15.8 mM).
Turning to `CCCCCCCC/C=C/C(=O)OC1CCC2C3C(CCCCCCCCC[S+]([O-])CCCC(F)(F)C(F)(F)F)Cc4cc(OC(=O)CCC)ccc4C3CCC12C` (centres unmarked) [Compound X], in series [1], the Tumor weight is on record as 0.402 ± 0.711 g and the Tumor inhibition rate came out at 65.93%.
Molecule `CC12CCC3c4ccc(O)cc4CC(CCCCCCCCC[S+]([O-])CCCC(F)(F)C(F)(F)F)C3C1CCC2O` (stereo not drawn) [Fulvestrant, 7-α-[9-(4,4,5,5,5-pentafluoropentylsulfinyl)nonyl]-estra-1,3,5(10)-triene-3,17β-diol] displayed a Tumor weight in series [1] of 0.392 ± 0.443 g. In series [1], this molecule gave a Tumor inhibition rate of 66.78%. The “Solubility in Migloyl 810” value in series [2] (Migloyl 810, 25° C.) is 3060 µg/mL (≈ 5.04 mM). Further, in series [2] (Migloyl 812, 25° C.), the “Solubility in Migloyl 812” value was 2720 µg/mL (≈ 4.48 mM). Besides, in series [2] (Span 85, 25° C.), the “Solubility in Span 85” value was 3790 µg/mL (≈ 6.25 mM). Also, the “Solubility in benzyl alcohol” value in series [2] (benzyl alcohol, 25° C.) was > 200000 µg/mL. Besides, the “Solubility in benzyl benzoate” value in series [2] (benzyl benzoate, 25° C.) was 6150 µg/mL (≈ 10.1 mM). For the same molecule, the “Solubility in castor oil” value in series [2] (castor oil, 25° C.) was 20000 µg/mL (≈ 33 mM). Also, the “Solubility in castor oil (reported value)” value in series [2] (castor oil, * denotes reported value) is 20* mg/mL. In addition, the Solubility in ethanol in series [2] (ethanol, 25° C.) was > 200000 µg/mL. Further, the “Solubility in ethyl oleate” value in series [2] (ethyl oleate, 25° C.) was 1250 µg/mL (≈ 2.06 mM). Besides, in series [2] (isopropyl myristate, 25° C.), the “Solubility in isopropyl myristate” value was 800 µg/mL (≈ 1.32 mM). The “Solubility in peanut oil” value in series [2] (peanut oil, 25° C.) is 450 µg/mL (≈ 0.742 mM). Moreover, in series [2] (sesame oil, 25° C.), the “Solubility in sesame oil” value is 580 µg/mL (≈ 0.956 mM). The Solubility in water in series [2] (water, 25° C.) is 1 µg/mL (≈ 0.00165 mM). The Water solubility result in series [2] (water) is on record as “about 10 ng/mL”. The molecule further showed a Final body weight in series [3] of 15.800 ± 1.166 g. For the same molecule, the solubility in series [4] (PEG 400, organic solvent or mixture, Solubility in PEG 400, PEG 400) is 6900 µg/mL (≈ 11.4 mM); in series [4] (propylene glycol, organic solvent or mixture, Solubility in propylene glycol), 10200 µg/mL (≈ 16.8 mM); in series [4] (soybean oil, oil or lipid, Solubility in soybean oil) it was 5000 µg/mL (≈ 8.24 mM).
